Read-outs that look alike come from different tables or passages of the source.
What was measured:
[1] = test system: barnyard grass Echinochloa crusgalli; assay: Petri dish culture, growth inhibition of root and stalk of barnyard grass; assay type: in vivo; settings: 5 days; for inhibition at 1 µg/mL / inhibition at 10 µg/mL: Echinochloa crus-galli, 120 h
Experimental: (§1) The synthesized compounds were tested for the herbicidal activity on model plants including a monocotyledon (barnyard grass) and a dicotyledon (rape) by the reported Petri dish culture method. The percent inhibitory ratios against the growth of root and stalk of barnyard grass and rape at different dosage concentrations were calculated, and the compounds with appreciable inhibitory potencies are selected and shown in Table 1 and Table 2. Several features of the inhibitory activities can be derived. First, all the compounds have stronger inhibition against the growth of the dicotyledon rape than against the monocotyledon barnyard grass, showing appreciable selectivity.
(§2) The herbicidal activity was examined for the growth inhibition effect of the dicotyledon rape Brassica napus and the monocotyledon barnyard grass Echinochloa crusgalli, using the standard Petri dish test and the pre-emergence treatment procedure. […] Nine mL of the solution was added in a Petri dish of 9 cm diameter and two pieces of filter paper were placed on the dish bottom. Twenty seeds each of rape and barnyard grass were placed on the filter paper. The covered Petri dish was transferred into an artificial climate incubator (MGC-400H, Shantou Keyi Co., Ltd., China), where the conditions were controlled at temperature 23 ± 1 °C, humidity 60 ± 5%, light intensity 10 Klux, and photoperiod 12 h/day. The incubation was continued for 5 days, then the lengths of 10 roots and 10 stems for each type of plant were measured and the mean values were calculated. The percent inhibitory ratios were calculated relative to control plants exposing to distilled water instead of the compound solution.

[2] = test system: rape Brassica napus; assay: Petri dish culture, growth inhibition of root and stalk of rape; assay type: in vivo; settings: 5 days; for inhibition at 1 µg/mL / inhibition at 10 µg/mL: Brassica napus, 120 h
Experimental: as §1, §2

[3] = 1 mg/L, root growth, read-out: Relative inhibition, root
[4] = 1 mg/L, stalk growth, read-out: Relative inhibition, stalk
[5] = 10 mg/L, root growth, read-out: Relative inhibition, root
[6] = 10 mg/L, stalk growth, read-out: Relative inhibition, stalk

Compound | Relative inhibition, root ([1]; 1 mg/L, root growth) | Relative inhibition, stalk ([1]; 1 mg/L, stalk growth) | Relative inhibition, root ([1]; 10 mg/L, root growth) | Relative inhibition, stalk ([1]; 10 mg/L, stalk growth) | Relative inhibition, root ([2]; 1 mg/L, root growth) | Relative inhibition, stalk ([2]; 1 mg/L, stalk growth) | Relative inhibition, root ([2]; 10 mg/L, root growth) | Relative inhibition, stalk ([2]; 10 mg/L, stalk growth) | inhibition at 1 µg/mL [1, 3] | inhibition at 1 µg/mL [1, 4] | inhibition at 10 µg/mL [1, 5] | inhibition at 10 µg/mL [1, 6] | inhibition at 1 µg/mL [2, 3] | inhibition at 1 µg/mL [2, 4] | inhibition at 10 µg/mL [2, 5] | inhibition at 10 µg/mL [2, 6] | melting point
7-Chloro-2-((2,4-dichlorophenoxy)methyl)-3-methyl-3H-quinazolin-4-one [4r] | 12.3% | 1.4% | 34.6% | 0.0% | 32.3% | −8.8% | 44.5% | −2.4% |  |  |  |  |  |  |  |  | 
O=c1oc(COc2ccccc2)nc2ccccc12 [3a, 2-(Phenoxymethyl)-4H-3,1-benzoxazin-4-one] |  |  |  |  |  |  |  |  | 19.3% | -29.6% | 64.8% | 26.9% | 71.2% | 27% | 89.1% | 79.4% | 87.9 to 92.1 °C
O=c1oc(COc2ccccc2)nc2cccc(Cl)c12 [3b, 5-Chloro-2-(phenoxymethyl)-4H-3,1-benzoxazin-4-one] |  |  |  |  |  |  |  |  | 47.2% | 0.5% | 56.3% | 24.1% | 59.6% | 39.2% | 83.3% | 51.9% | 118.3 to 120.9 °C
O=c1oc(COc2ccccc2)nc2ccc(Cl)cc12 [3c, 6-Chloro-2-(phenoxymethyl)-4H-3,1-benzoxazin-4-one] |  |  |  |  |  |  |  |  | 23.7% | 0.3% | 62.6% | 46.7% | 45.4% | 26.7% | 83.9% | 64.6% | 113.1 to 115.2 °C
O=c1oc(COc2ccccc2)nc2cc(Cl)ccc12 [3d, 7-Chloro-2-(phenoxymethyl)-4H-3,1-benzoxazin-4-one] |  |  |  |  |  |  |  |  | 41.9% | -23.6% | 62.3% | 28.3% | 75.5% | 44.9% | 93.5% | 71.6% | 117.3 to 119.9 °C
Cc1ccc2nc(COc3ccccc3)oc(=O)c2c1 [3e, 6-Methyl-2-(phenoxymethyl)-4H-3,1-benzoxazin-4-one] |  |  |  |  |  |  |  |  | 26.1% | -17.2% | 71.4% | 31.1% | 55.3% | 11.6% | 92.3% | 81.6% | 133.3 to 135.1 °C
COc1cc2nc(COc3ccccc3)oc(=O)c2cc1OC [3f, 6,7-Dimethoxy-2-(phenoxymethyl)-4H-3,1-benzoxazin-4-one] |  |  |  |  |  |  |  |  | 35.5% | 32% | 63% | 46.7% | 94.9% | 32.9% | 71.1% | 63.3% | 132.1 to 134.3 °C
O=c1oc(COc2ccc(Cl)cc2)nc2cc(Cl)ccc12 [3j, 7-Chloro-2-((4-chlorophenoxy)methyl)-4H-3,1-benzoxazin-4-one] |  |  |  |  |  |  |  |  | 43.6% | 12.8% | 92.3% | 31.1% | 91.4% | 59.5% | 100% | 91.1% | 189.9 to 191.8 °C
Cc1ccc2nc(COc3ccc(Cl)cc3)oc(=O)c2c1 [3k, 2-((4-Chlorophenoxy)methyl)-6-methyl-4H-3,1-benzoxazin-4-one] |  |  |  |  |  |  |  |  | 48.4% | 18.2% | 77.1% | -8.8% | 84.7% | 29.3% | 100% | 82.1% | 143.7 to 145.6 °C
O=c1oc(COc2ccc(F)cc2)nc2ccccc12 [3r, 2-((4-Fluorophenoxy)methyl)-4H-3,1-benzoxazin-4-one] |  |  |  |  |  |  |  |  | 62.6% | 42.8% | 96.8% | 57.8% | 81.4% | 55.3% | 99.6% | 87% | 112.5 to 114.6 °C
O=c1oc(COc2ccc(F)cc2)nc2cccc(Cl)c12 [3s, 5-Chloro-2-((4-fluorophenoxy)methyl)-4H-3,1-benzoxazin-4-one] |  |  |  |  |  |  |  |  | 61.1% | 11.8% | 91% | 46.3% | 72.8% | 25.7% | 98.6% | 94.8% | 155.9 to 156.7 °C
O=c1oc(COc2ccc(F)cc2)nc2ccc(Cl)cc12 [3t, 6-Chloro-2-((4-fluorophenoxy)methyl)-4H-3,1-benzoxazin-4-one] |  |  |  |  |  |  |  |  | 66.3% | 36.4% | 93.2% | 49.1% | 85.5% | 60% | 99.3% | 91.7% | 159.8 to 161.7 °C
O=c1oc(COc2ccc(F)cc2)nc2cc(Cl)ccc12 [3u, 7-Chloro-2-((4-fluorophenoxy)methyl)-4H-3,1-benzoxazin-4-one] |  |  |  |  |  |  |  |  | 61.8% | -7.3% | 96.7% | 39% | 92.7% | 65.2% | 99% | 92.2% | 123.6 to 124.9 °C
Cc1ccc2nc(COc3ccc(F)cc3)oc(=O)c2c1 [3v, 2-((4-Fluorophenoxy)methyl)-6-methyl-4H-3,1-benzoxazin-4-one] |  |  |  |  |  |  |  |  | 69.9% | 24.1% | 92.2% | 31.7% | 87.7% | 61% | 99.3% | 93.7% | 130.8 to 131.9 °C
COc1cc2nc(COc3ccc(F)cc3)oc(=O)c2cc1OC [3w, 2-((4-Fluorophenoxy)methyl)-6,7-dimethoxy-4H-3,1-benzoxazin-4-one] |  |  |  |  |  |  |  |  | 37.5% | 12.8% | 64.5% | 16.4% | 35.2% | 12.8% | 79.7% | 41.4% | 144.7 to 146 °C
Nn1c(COc2ccc(Cl)cc2)nc2cccc(Cl)c2c1=O [4a, 3-Amino-5-chloro-2-((4-chlorophenoxy)methyl)-3H-quinazolin-4-one] |  |  |  |  |  |  |  |  | 57.9% | 8.9% | 43.1% | 14.9% | 28.5% | 13.2% | 41.5% | -5.9% | 191.8 to 193.3 °C
Nn1c(COc2ccc(Cl)cc2)nc2ccc(Cl)cc2c1=O [4b, 3-Amino-6-chloro-2-((4-chlorophenoxy)methyl)-3H-quinazolin-4-one] |  |  |  |  |  |  |  |  | 33.2% | 20.9% | 9.9% | 11.9% | 27.7% | 14.7% | 46.8% | 13.2% | 178.1 to 179.4 °C
Nn1c(COc2ccc(Cl)cc2)nc2cc(Cl)ccc2c1=O [4c, 3-Amino-7-chloro-2-((4-chlorophenoxy)methyl)-3H-quinazolin-4-one] |  |  |  |  |  |  |  |  | 10.4% | 1.4% | 42.1% | 17.9% | 27.7% | -9.3% | 69.7% | 41.6% | 129.5 to 131.6 °C
Cc1ccc2nc(COc3ccc(Cl)cc3)n(N)c(=O)c2c1 [4d, 3-Amino-2-((4-chlorophenoxy)methyl)-6-methyl-3H-quinazolin-4-one] |  |  |  |  |  |  |  |  | 16.3% | 11.9% | 35.6% | 7.4% | 26.4% | -14.7% | 31.3% | -3.4% | 177.3 to 178.6 °C

Source: article PMC6268642, “Facile Synthesis and Herbicidal Evaluation of 4H-3,1-Benzoxazin-4-ones and 3H-Quinazolin-4-ones with 2-Phenoxymethyl Substituents” (Molecules, 2012)
